Assay [1] deals with MYCN G4 DNA. Description: DMS footprinting of 5′Cy5-labeled MYCN G4 DNA. The class given is binding, human. As to the method: DMS footprinting. Footprinting of 5′Cy5-labelled DNA was performed as described in the literature (Zhang et al., JACS 2014, 136:1381-1390; Li et al., PNAS 2015, 112:14581-14586). […] Then, DNA solutions were diluted to 50 nM in corresponding buffers (2 mL final volume in each tube) and compound stock solutions (in DMSO) were added resulting in solutions with designed concentrations (resulting in 5% DMSO). After incubation for 30 min, the folded DNA samples were treated with 0.5% DMS for 10 min at RT and the reaction was stopped by adding 200 μL stop buffer (2.5 M NH4OAc, 0.1 M β-mercaptoethanol, 1 mg/mL calf thymus DNA). After phenol/chloroform/isoamyl alcohol extraction and ethanol precipitation, the DNAs were dissolved in 50 μL of nuclease free water. An equal volume of 10% piperidine was added to each tube, and the mixed solutions were heated at 90° C. for 30 min, followed by quick chilling on ice. The DNAs were again subjected to phenol/chloroform/isoamyl alcohol extraction and ethanol precipitation. The precipitated DNAs were dissolved in 10 μL of nuclease free water, denatured at 95° C. for 5 min, and resolved on a 17% denaturing polyacrylamide gel. After gel running, Cy5-labeled DNA fragments were visualized on a Typhoon Imager (Amersham) and digitized using Image J software.
In this example, DMS-footprinting was conducted by using 5′-Cy5-labeled MYCN hairpin-G4 DNA. […]

Assay [2] concerns the target MYCN G4 DNA. Description: Fluorescence intensity assay (FIA) with 5′Cy5-labeled MYCN G4 DNA. The class given is binding, human. The conditions noted are these: for Kd: 5′Cy5-labeled MYCN G4 titrated with compound; for positive binding in FIA (>10% quenching): single concentration 100 μM compound, 5′Cy5-MYCN G4. As to the method:
(§1) Fluorescence intensity assay. In this disclosure, fluorescence intensity assay (FIA) was used for both validation of hit binding at a single dose and binding affinity determination. For validating hit compounds from SMM screening, 100 μM solution of each compound was prepared in triplicate in a 96 well-plate (Costar, black side clear bottom), resulting in 5% DMSO concentration. 5′Cy5-labeled MYCN G4 DNA was annealed as described above, then added into the well plate resulting in a final concentration of 100 nM. The plate was incubated shaking for 30 min, followed by centrifuging at 500 rpm for 2 minutes. The fluorescence intensity was then measured on a Synergy Mx microplate reader (BioTek) at Ex 649 nm/Em 670 nm. TMPyP4/DMSO were used as positive and negative controls, respectively. In certain examples, compounds were considered binders when a change of >10% change in fluorescence intensity was observed compared to that of negative control (DMSO solution). For binding affinity measurement, small molecule solutions were prepared as serial dilutions in DMSO. Then a final test plate was prepared by adding 5 μL small molecule solutions and 10 μL annealed DNA samples into 85 μL buffer solutions, resulting in the final small molecule concentrations from 0 to 250 μM (5% final DMSO concentration). The fluorescence intensities were normalized, and the binding affinity was calculated by fitting the curve using one-site total model in GraphPad Prism 8.3.1 software. The fluorescence titration using 3′-labeled oligonucleotides was also performed the same way.

Another assay concerns dsDNA. Description: CD melting test of dsDNA. The class given is binding. The conditions noted are these: CD melting of dsDNA with compound.
Another assay relates to MYCN G4 DNA with 10×tRNA. Description: Fluorescence titration of MYCN G4 in presence/absence of excess tRNA. The format is binding, human. The conditions noted are these: presence/absence of 10×tRNA. As to the method: 2-Aminopurine (2-AP) fluorescence titration. Fluorescence titrations based on 2-aminopurine labeling were performed using the protocol reported previously. Briefly, MYCN G4 oligonucleotide with a 2-AP substitution at either A11 or A18 position was annealed by heating the sample to 95° C. for 5 min and cooling down to RT slowly. The oligonucleotide with folded structure was diluted to 10 μM in Tris buffer (10 mM Tris, pH7.0, 100 mM KCl, 0.005% Tween 20) and prepared in a black 96-well plate (Costar) in triplicate as designed. Small molecules were diluted in DMSO to obtain a series of solutions with concentrations ranging from 0.1 to 5 mM, and then diluted by 20 times added into the plate (5% DMSO final concentration). The final concentration of 2-AP DNA was 1 μM in the well plate. To obtain the background fluorescence, small molecule solutions without DNA were also prepared in the same plate. After incubation for 30 min at RT, the plate was briefly centrifuged and scanned in Synergy Mx microplate reader (BioTek) with Ex 310 nm/Em 365 nm. Fluorescence signals were calculated by averaging the intensities in triplicate wells after subtracting the references. Finally, the binding signals were normalized and the KD value was determined by fitting the curve using a nonlinear sigmoidal dose-response model with a variable slope in GraphPad Prism 8.3.1 software.

Assay [3] addresses mutated/truncated MYCN G4 DNA. Description: FIA titration with mutated long loop and truncated (no hairpin) MYCN G4 DNAs. The class given is binding, human. As to the method:
as §1
To further understand the binding details between compound MY-1 and MYCN G4, a series of FIA studies were designed and performed. […] After incubating 100 μM MY-1 with labeled DNA samples, fluorescence intensities were measured and compared to DMSO controls. Fluorescence of the A11 2-AP DNA sample was quenched by almost 100%, while the quenching percentages were 80% and 70% for A18 and A24 2-AP DNAs, respectively (FIG. 24B, FIGS. 25A-25C). […]

Bounds are passed on as bounds.

For the compound `COc1ccc(-c2noc(-c3ccc(NCCCNc4c5ccc(Cl)cc5nc5ccc(OC)cc45)nn3)n2)cc1` [B33, N^1-(6-chloro-2-methoxyacridin-9-yl)-N^3-(6-(3-(4-methoxyphenyl)-1,2,4-oxadiazol-5-yl)pyridazin-3-yl)propane-1,3-diamine], in the assay with MYCN G4 DNA [1] (10 mM LiCl + 10 mM NaCl Tris buffer, 0-100 nM compound), the “protection of guanines from DMS” value was “protection of G2-9, G10-12, and G17-21”.
Take `CCCN1CCN(c2nnc(-n3cccc3CNCCCN3CCCCCC3)s2)CC1` [Compound 1]: on MYCN G4 DNA [2], the Kd came out at 20.8 ± 2.2 µM and the “positive binding in FIA (>10% quenching)” value was “hits”. Also, in the assay on dsDNA, the “effect on dsDNA melting” value is “Neither of the compounds showed a measurable effect”. In addition, in the assay on MYCN G4 DNA with 10×tRNA, the “effect of excess tRNA on binding affinity” value was “no effect”. The “binding affinity to mutated long loop and truncated MYCN G4 DNAs” value in assay [3] (5′-Cy5 labeled constructs without hairpin) is listed as “comparable to wild type”.
With `COc1ccc(-c2noc(-c3ccc(NCCCN4CCCC4)nn3)n2)cc1` [MY-1, 6-(3-(4-methoxyphenyl)-1,2,4-oxadiazol-5-yl)-N-(3-(pyrrolidin-1-yl)propyl)pyridazin-3-amine], the Kd was 3.5 ± 1.6 µM at MYCN G4 DNA [2]; greater than 100 µM in assay [3] (5′-Cy5 labeled constructs without hairpin, read-out: binding affinity to mutated long loop and truncated MYCN G4 DNAs). Besides, in the assay with MYCN G4 DNA [2], the “positive binding in FIA (>10% quenching)” value was “hits”. In the assay with dsDNA, the “effect on dsDNA melting” value is reported as “Neither of the compounds showed a measurable effect”. Also, the “effect of excess tRNA on binding affinity” value with MYCN G4 DNA with 10×tRNA is on record as “no effect”. The “fold weaker binding than wild type MYCN G4” value in assay [3] (mutated/truncated vs wild type) is recorded as roughly 30 fold. Also, the “protection of guanines from DMS” value with MYCN G4 DNA [1] (5 mM KCl buffer, compound at concentrations according to KD) is “G8, G9, G16, G17 were protected considerably, while G13-G15 were slightly protected”.
